Measured values taken from patent US20250195513A1, “DEGRADATION OF IRAK4 BY CONJUGATION OF IRAK4 INHIBITORS WITH E3 LIGASE LIGAND AND METHODS OF USE” (BeiGene, Ltd., priority 2022, published 2025).
Where two headings read alike, the source gives them in different places.

Molecular target: T1, IRAK4 (Homo sapiens, UniProt Q9NWZ3)
T1 construct: endogenous in cells; host or cells: Karpas299
T1 sequence (Q9NWZ3 1-460): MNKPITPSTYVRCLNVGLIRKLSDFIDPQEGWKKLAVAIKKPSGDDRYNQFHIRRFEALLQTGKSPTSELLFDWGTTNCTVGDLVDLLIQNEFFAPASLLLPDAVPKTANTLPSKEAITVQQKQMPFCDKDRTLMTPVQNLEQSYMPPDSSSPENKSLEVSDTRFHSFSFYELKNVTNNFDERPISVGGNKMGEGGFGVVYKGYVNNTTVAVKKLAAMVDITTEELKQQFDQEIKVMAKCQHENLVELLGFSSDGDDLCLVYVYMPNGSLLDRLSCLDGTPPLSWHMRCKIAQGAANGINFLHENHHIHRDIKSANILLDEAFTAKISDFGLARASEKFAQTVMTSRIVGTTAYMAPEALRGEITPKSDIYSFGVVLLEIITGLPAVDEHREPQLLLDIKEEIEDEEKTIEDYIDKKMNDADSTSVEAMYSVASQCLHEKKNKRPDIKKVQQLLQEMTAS
Assay: IRAK4 Degradation Assay (Karpas299, HTRF/TR-FRET)
Format: cell-based
Description: IRAK4 degradation was measured using a TR-FRET-based method (Degorce, François, et al. Current chemical genomics. 2009, 3: 22). Karpas299 maintained in RPMI 1640 medium (Thermo Scientific) supplemented with 20% fetal bovine serum (FBS, Thermo Scientific), 100 units/mL penicillin and 0.1 mg/mL streptomycin (Thermo Scientific) were seeded into 96-well plates at the density of 0.2 million cells per well and then treated with a series dilution of compounds. After 24 hours or 5 hours treatment, cells were pelleted via centrifugation and 40 μL lysis buffer (Cisbio) was added to each well after removal of the supernatant. Plates were then incubated at room temperature with shaking for 30 minutes. A total of 16 μL of cell lysates from each well of a 96-well plate was transferred to a 384-well white assay plate. IRAK4 level was quantitated using the HTRF kit as described by the manufacturer manual (Cisbio). FRET signals were measured using a PHERAstar FSX reader (BMG Labtech).
After treatment, add HTRF lysis buffer to each well; seal the plate and incubate 1 hour at room temperature on a plate shaker; Once the cells are lysed, 16 μL of cell lysate are transferred to a PE 384-well HTRF detection plate; 4 μL of pre-mixed HTRF antibodies are added to each well; Cover the plate with a plate sealer, spin 1000 rpm for 1 min, Incubate overnight at room temperature; Read on BMG PheraStar with HTRF protocol (337 nm-665 nm-620 nm).
The inhibition (degradation) percentage of the compound was calculated by the following equation: […]
The IC50 (DC50) value of a compound can be obtained by fitting the following equation
Wherein, X and Y are known values, and IC50, Hillslope, Top and Bottom are the parameters obtained by fitting with software. Y is the inhibition percentage (calculated from the equation), X is the concentration of the compound; IC50 is the concentration of the compound when the […] is reached. The smaller the IC50 value is, the stronger the inhibitory ability of the compound is. Vice versa, the higher the IC50 value is, the weaker the ability the inhibitory ability of the compound is; Hillslope represents the slope of the fitted curve, generally around 1 *; Bottom represents the minimum value of the curve obtained by data fitting, which is generally 0%±20%; Top represents the maximum value of the curve obtained by data fitting, which is generally 100%±20%. The experimental data were fitted by calculating and analyzing with Dotmatics data analysis software.

[1] = Karpas-299 cells, 24 h treatment, maximum percentage of degradation, read-out: IRAK4 in Karpas-299 (24 h) Dmax (%)
[2] = Karpas-299 cells, 24 h treatment, read-out: IRAK4 in Karpas-299 (24 h) DC50
[3] = Karpas-299 cells, 5 h treatment, maximum percentage of degradation, read-out: IRAK4 in Karpas-299 (5 h) Dmax (%)
[4] = Karpas-299 cells, 5 h treatment, read-out: IRAK4 in Karpas-299 (5 h) DC50

Compound | DC50 (Degradation (Karpas-299), comparison table, Linker Type A, read-out: Compound (Linker Type A) DC50) | Dmax (Degradation (Karpas-299), comparison table, Linker Type A, read-out: Compound (Linker Type A) Dmax (%)) | Dmax [1] | DC50 [2] | Dmax [3] | DC50 [4]
O=C1CCN(c2ccc(N3CC(N4CCN(C[C@H]5CC[C@H](n6cc(NC(=O)c7coc(-c8ccnc(NCC(F)(F)F)c8)n7)c(C(F)F)n6)CC5)CC4)C3)cc2)C(=O)N1 [Example 3, N-(3-(difluoromethyl)-1-((1r,4r)-4-((4-(1-(4-(2,4-dioxotetrahydropyrimidin-1(2H)-yl)phenyl)azetidin-3-yl)piperazin-1-yl)methyl)cyclohexyl)-1H-pyrazol-4-yl)-2-(2-((2,2,2-trifluoroethyl)amino)pyridin-4-yl)oxazole-4-carboxamide] | > 10000 nM | 9% | 9% | > 10000 nM |  | 
Cc1cc(-c2nc(C(=O)Nc3cn(-c4ccc(N5CCN(C(=O)[C@@H]6CCN(c7cc(F)c([C@H]8CCC(=O)NC8=O)c(F)c7)C6)CC5)nc4)nc3C(N)=O)co2)ccn1 [Example 30, N-(3-carbamoyl-1-(6-(4-((R)-1-(4-((R)-2,6-dioxopiperidin-3-yl)-3,5-difluorophenyl)pyrrolidine-3-carbonyl)piperazin-1-yl)pyridin-3-yl)-1H-pyrazol-4-yl)-2-(2-methylpyridin-4-yl)oxazole-4-carboxamide] |  |  | 95% | 3.2 nM | 76% | 5.3 nM
CC(C)(O)c1cc2nn(C3CCN(C4CCN(C(=O)[C@@H]5CCN(c6cc(F)c([C@H]7CCC(=O)NC7=O)c(F)c6)C5)CC4)CC3)cc2cc1NC(=O)c1cccn(C2CC2)c1=O [Example 118, 1-cyclopropyl-N-(2-(1′-((R)-1-(4-((R)-2,6-dioxopiperidin-3-yl)-3,5-difluorophenyl)pyrrolidine-3-carbonyl)-[1,4′-bipiperidin]-4-yl)-6-(2-hydroxypropan-2-yl)-2H-indazol-5-yl)-2-oxo-1,2-dihydropyridine-3-carboxamide] |  |  | 85% | 2.8 nM |  | 
O=C1CCN(c2ccc(N3CC[C@@H](C(=O)N4CCN([C@H]5CC[C@H](n6cc(NC(=O)c7coc(-c8ccnc(NCC(F)(F)F)c8)n7)c(C(F)F)n6)CC5)CC4)C3)cc2)C(=O)N1 [Example 14, N-(3-(difluoromethyl)-1-((1R,4r)-4-(4-((R)-1-(4-(2,4-dioxotetrahydropyrimidin-1(2H)-yl)phenyl)pyrrolidine-3-carbonyl)piperazin-1-yl)cyclohexyl)-1H-pyrazol-4-yl)-2-(2-((2,2,2-trifluoroethyl)amino)pyridin-4-yl)oxazole-4-carboxamide] |  |  | 70% | 3.4 nM |  | 
O=C1CCN(c2c(F)cc(N3CC[C@H](C(=O)N4CCN([C@H]5CC[C@H](n6cc(NC(=O)c7cnn(-c8ccnc(NCC9CC9)c8)n7)c(C(F)F)n6)CC5)CC4)C3)cc2F)C(=O)N1 [Example 63, 2-(2-((cyclopropylmethyl)amino)pyridin-4-yl)-N-(3-(difluoromethyl)-1-((1S,4r)-4-(4-((S)-1-(4-(2,4-dioxotetrahydropyrimidin-1(2H)-yl)-3,5-difluorophenyl)pyrrolidine-3-carbonyl)piperazin-1-yl)cyclohexyl)-1H-pyrazol-4-yl)-2H-1,2,3-triazole-4-carboxamide] |  |  | 95% | 15 nM |  | 
CC(C)c1cc(-c2nc(C(=O)Nc3cn([C@H]4CC[C@H](N5CCN(C(=O)[C@@H]6CCN(c7cc(F)c([C@H]8CCC(=O)NC8=O)c(F)c7)C6)CC5)CC4)nc3C(F)F)co2)ccn1 [Example 85, N-(3-(difluoromethyl)-1-((1R,4r)-4-(4-((R)-1-(4-((R)-2,6-dioxopiperidin-3-yl)-3,5-difluorophenyl)pyrrolidine-3-carbonyl)piperazin-1-yl)cyclohexyl)-1H-pyrazol-4-yl)-2-(2-isopropylpyridin-4-yl)oxazole-4-carboxamide] |  |  | 95% | 5.2 nM |  | 
CC(C)(O)c1cc2nn([C@H]3CC[C@H](N4CCN(C[C@H]5CCN(c6cc(F)c(N7CCC(=O)NC7=O)c(F)c6)C5)CC4)CC3)cc2cc1NC(=O)c1ccc2cc(C#N)cnn12 [Example 112, 3-cyano-N-(2-((1R,4r)-4-(4-(((R)-1-(4-(2,4-dioxotetrahydropyrimidin-1(2H)-yl)-3,5-difluorophenyl)pyrrolidin-3-yl)methyl)piperazin-1-yl)cyclohexyl)-6-(2-hydroxypropan-2-yl)-2H-indazol-5-yl)pyrrolo[1,2-b]pyridazine-7-carboxamide] |  |  | 96% | 8.6 nM |  | 
[2H]C([2H])([2H])Oc1cc2nn([C@H]3CC[C@H](N4CCN(C(=O)[C@@H]5CCN(c6cc(F)c(N7CCC(=O)NC7=O)c(F)c6)C5)CC4)CC3)cc2cc1NC(=O)c1cccc(C(F)(F)F)n1 [Example 174, N-(2-((1R,4r)-4-(4-((R)-1-(4-(2,4-dioxotetrahydropyrimidin-1(2H)-yl)-3,5-difluorophenyl)pyrrolidine-3-carbonyl)piperazin-1-yl)cyclohexyl)-6-(methoxy-d3)-2H-indazol-5-yl)-6-(trifluoromethyl)picolinamide] |  |  | 97% | 7.7 nM |  | 

Molecules with a lower DC50 [2], results first:

DC50 (Degradation (Karpas-299), comparison table, Linker Type A, read-out: Compound (Linker Type A) DC50) | Dmax (Degradation (Karpas-299), comparison table, Linker Type A, read-out: Compound (Linker Type A) Dmax (%)) | Dmax [1] | DC50 [2] | Dmax [3] | DC50 [4] | Compound
 |  | 96% | 0.9 nM |  |  | CC(C)(O)c1cc2nn([C@H]3CC[C@H](N4CCN(C5CCN(c6cc(F)c([C@H]7CCC(=O)NC7=O)c(F)c6)CC5)CC4)CC3)cc2cc1NC(=O)c1coc2cccnc12 [Example 405, N-(2-((1r,4r)-4-(4-(1-(4-((R)-2,6-dioxopiperidin-3-yl)-3,5-difluorophenyl)piperidin-4-yl)piperazin-1-yl)cyclohexyl)-6-(2-hydroxypropan-2-yl)-2H-indazol-5-yl)furo[3,2-b]pyridine-3-carboxamide]
 |  | 94% | 1.6 nM |  |  | CC(C)(O)c1cc2nn([C@H]3CC[C@H](N4CCN(C(=O)[C@@H]5CCN(c6cc(F)c([C@H]7CCC(=O)NC7=O)c(F)c6)C5)CC4)CC3)cc2cc1NC(=O)c1ccc2c(n1)C(F)(F)CCC2 [Example 172, N-(2-((1R,4r)-4-(4-((R)-1-(4-((R)-2,6-dioxopiperidin-3-yl)-3,5-difluorophenyl)pyrrolidine-3-carbonyl)piperazin-1-yl)cyclohexyl)-6-(2-hydroxypropan-2-yl)-2H-indazol-5-yl)-8,8-difluoro-5,6,7,8-tetrahydroquinoline-2-carboxamide]
 |  | 99% | 0.8 nM | 96% | 4.6 nM | CC(C)(O)c1cc2nn([C@H]3CC[C@H](N4CCN(C(=O)[C@@H]5CCN(c6cc(F)c([C@H]7CCC(=O)NC7=O)c(F)c6)C5)CC4)CC3)cc2cc1NC(=O)c1cccc(C(F)(F)F)n1 [Example 39, N-(2-((1R,4r)-4-(4-((R)-1-(4-((R)-2,6-dioxopiperidin-3-yl)-3,5-difluorophenyl)pyrrolidine-3-carbonyl)piperazin-1-yl)cyclohexyl)-6-(2-hydroxypropan-2-yl)-2H-indazol-5-yl)-6-(trifluoromethyl)picolinamide]
 |  | 96% | 2 nM |  |  | O=C1CC[C@H](c2c(F)cc(N3CC[C@@H](C(=O)N4CCN([C@H]5CC[C@H](n6cc(NC(=O)c7cnn(-c8ccnc(NCC(F)(F)F)c8)n7)c(C(F)F)n6)CC5)CC4)C3)cc2F)C(=O)N1 [Example 52, N-(3-(difluoromethyl)-1-((1R,4r)-4-(4-((R)-1-(4-((R)-2,6-dioxopiperidin-3-yl)-3,5-difluorophenyl)pyrrolidine-3-carbonyl)piperazin-1-yl)cyclohexyl)-1H-pyrazol-4-yl)-2-(2-((2,2,2-trifluoroethyl)amino)pyridin-4-yl)-2H-1,2,3-triazole-4-carboxamide]
